Test results: patent publication EP4458352A1, “EICOSAPENTAENOIC ACID ESTER DERIVATIVES FOR THE TREATMENT OF OBESITY” (Technische Universität Dresden, priority 2023, dated 2024)

Columns and labels:
[1] = system: primary adrenal cell cultures; assay: Steroid hormone production (LC-MS/MS) in primary adrenal cell cultures treated with SC-26196, with or without ACTH or ARA; format: cell-based, WT C57BL/6J mice
Description: Adrenal glands or adrenal corteces were isolated from WT C57BL/6J mice, cleaned from the surrounding fat tissue and incubated in collagenase buffer (1.6 mg/ml collagenase type I, 1.6 mg/ml BSA) for 45 min at 37 °C, while shaking at 900 rpm. Dissociated cells were passed through 22 G needle and a 100 µm cell strainer and centrifuged at 300 × g for 5 min at 4 °C. Cells of a pool from two adrenals of each mouse were distributed in four 0.2 % gelatin-precoated wells of a 96-well plate in DMEM/F12 supplemented with 1 % FBS, 50 U/mL penicillin and 50 µg/mL streptomycin. Two hours after seeding 10 µM SC-26196 (Tocris, Wiesbaden-Nordenstadt, Germany) or same amount of carrier (DMSO) were added without changing the medium. In some experiments medium was additionally supplemented with 150 µM ARA (Sigma Aldrich, Germany) or same amount of solvent (endotoxin-free water). When induction of steroidogenesis was required, the medium was changed 18 h after treatment and the cells were incubated with or without 10 ng/mL ACTH for 60 min in the presence of either 10 µM SC-26196 or DMSO. Supernatants were kept for steroid hormone measurement and cell lysates were collected for transcriptional analysis. In some experiments, primary CD31-CD45- adrenocortical cells were treated or not for 18 h with 66 µM EPA (Sigma-Aldrich). Steroid hormones in plasma and cell culture supernatants were analyzed by LC-MS/MS as previously described (71). Fifty to hundred µL plasma or cell culture supernatants were extracted by solid phase extraction using positive pressure, followed by a dry-down under gentle stream of nitrogen. Residues were reconstituted in 100 µL of the initial LC mobile phase and 10 µL were injected for detection by the triple quadrupole mass spectrometer in multiple reaction-monitoring scan mode using positive electrospray ionization. Quantification of steroid concentrations was done by comparisons of ratios of analyte peak areas to respective peak areas of stable isotope labeled internal standards obtained in samples to those of calibrators.

[2] = system: adrenal cortex; assay: RNA-Seq and GSEA of the adrenal cortex of HFD mice with or without icosapent ethyl; format: in vivo, WT C57BL/6J mice; details: HFD with icosapent ethyl versus HFD without; n=4 mice per group
Description: Six weeks-old male WT C57BL/6J mice were fed for 20 weeks a LFD (D12450B, Research Diets, NJ, USA) or a HFD (D12492, Research Diets, NJ, USA). In some experiments, WT C57BL/6J mice were fed for 8 weeks a HFD and for another 8 weeks a HFD supplemented with SC-26196 (Biorbyt Ltd). SC-26196 was mixed in the HFD at a concentration of 625 mg/kg of diet corresponding to approx. 100 mg/kg of animal weight. In other experiments WT mice were fed for 10 weeks a HFD and for another 10 weeks a HFD supplemented with icosapent ethyl (Vascepa). […]
For transcriptome mapping, strand-specific paired-end sequencing libraries from total RNA were constructed using TruSeq stranded Total RNA kit (Illumina Inc). […] Low quality nucleotides were removed with the Illumina fastq filter and reads were further subjected to adaptor trimming using cutadapt (85). Alignment of the reads to the Mouse genome was done using STAR Aligner (86) using the parameters: "-runMode alignReads -outSAMstrandField intronMotif-outSAMtype BAM SortedByCoordinate-readFilesCommand zcat". […] The parameters: `htseq-count -f bam -s reverse -m union -a 20', HTSeq-0.6.1p1 (87) were used to count the reads that map to the genes in the aligned sample files. The GTF file (gencode.vM12.annotation.gtf) used for read quantification was downloaded from Gencode (https://www.gencodegenes.org/mouse/release_M12.html). […]

[3] = ARA 150 µM with SC-26196 10 µM, 18 h, n=6-8

SMILES: CCCCC/C=C\C/C=C\C/C=C\C/C=C\CCCC(=O)O [ARA, all-cis-5,8,11,14-eicosatetraenoic acid]
- 11-deoxycorticosterone production in cells treated with SC-26196 [1, 3]: partially restored
- corticosterone production in cells treated with SC-26196 [1, 3]: partially restored
- progesterone production in cells treated with SC-26196 [1, 3]: partially restored
- steroidogenesis in adrenocortical cells ([1]; ARA supplementation (150 µM)): increased steroidogenesis

SMILES: CC/C=C\C/C=C\C/C=C\C/C=C\C/C=C\CCCC(=O)OCC [icosapent ethyl, eicosapentaenoic acid ethyl ester]
- genes being down-regulated in the adrenal cortex (RNA-Seq) [2]: 162
- genes being up-regulated in the adrenal cortex (RNA-Seq) [2]: 266
